Measured values as given in US20190358264A1, “METHODS OF TREATING DISEASES ASSOCIATED WITH ILC2 CELLS” (Limm Therapeutics, SA, priority 2016, published 2019).

Tested on: ILC2s
Assay: In vitro activation of purified ILC2s, type 2 cytokine protein by intracellular staining
Type: cell-based, mouse
Procedure: FIGS. 10a-10d: FIG. 10a, Ki67 expression in intestinal ILC2s after an overnight in vitro stimulation with NmU23 alone (100 ng/mL, Phoenix Pharmaceutical) or NmU23 together with the survival cytokines Interleukin (IL)-2 and/or IL-7 (10 ng/mL). FIG. 10b, Ki67 expression in intestine ILC2 after in vivo administration of NmU23 (4 g/day during 2 days). n=5. FIG. 10c, ILC2-derived type 2 cytokines (IL-5, IL-13 and Amphiregulin (Areg)) in sorted intestine ILC2 after an overnight stimulation with NmU23, mouse recombinant IL-25 or IL-33 (R&D) (10, 50 and 100 ng/mL). Negative control: unstimulated ILC2, Positive control: ILC2 activated with phorbol 12-myristate 13-acetate (PMA, 50 ng/ml) plus ionomycin (500 ng/ml). n=3. FIG. 10d, Dot plots representative of the cytokine production with increasing dose of NmU23, rIL-25 and rIL-33. *P<0.05; **P<0.01; ***P<0.001; ****P<0.0001; ns not significant.
For in vitro experiments, purified lung and small intestine lamina propria ILC2s were FBS starved for 2 hours prior to stimulation and cultured in complete RPMI (supplemented with 10% foetal bovine serum (FBS), 1% hepes, sodium pyruvate, glutamine, streptomycin and penicillin) at 37° C. For mRNA analysis, ILC2s were stimulated overnight with recombinant mouse Neuromedin U 23 peptide (NmU23, 100 ng/mL; Phoenix pharmaceuticals). Both NmU23-stimulated and control ILC2s were cultured in the presence of IL-2 and IL-7 (10 ng/mL; Peprotech). ILC2s were lysed using RLT buffer (Qiagen). For cytokine protein analysis, ILC2s were incubated exclusively with brefeldin A (eBioscience) for 12 hours prior to intracellular staining. For in vivo experiments, B6 mice were injected intraperitoneal with NmU23 peptide (2 g/day) during Nippostrongylus brasiliensis infection or with a single dose of NmU23 (20 μg) and analyzed after 8 hours. Control mice were treated with PBS alone.
Intracellular staining was performed using IC fixation/permeabilization kit (eBioscience). Flow cytometry analysis and cell sorting were performed using BD LSRFORTESSA and BD FACSAria flow cytometers (BD Biosciences). […]

Substance: Neuromedin U (FKAEYQSPSVGQSKGYFLFRPRN) [NmU]
- up-regulation of innate type 2 cytokines relative to PMA-ionomycin positive control (PMA 50 ng/ml plus ionomycin 500 ng/ml, sorted intestine ILC2, overnight): comparable to the effects observed with PMA-ionomycin activation
- expression of innate IL-5 and IL-13 compared to IL-33 and IL-25 (sorted intestine ILC2, overnight, 10, 50 and 100 ng/mL (FIGS. 10c,10d)): prompt, and very robust expression
